Test results as given in patent US20080262043A1, “Solid Crystalline Form of Pantoprazole Free Acid, Salts Derived Therefrom and Process for Their Preparation” (MEDICHEM, S.A., priority 2005, published 2008).

Test: Solid-state stability of the crystalline form upon drying under vacuum
Assay type: physicochemical
Settings: drying under vacuum at approximately 40° C. for approximately 2 hours

change in the crystalline structure upon drying: no change in the crystalline structure
Compound: COc1ccnc(C[S+]([O-])c2nc3cc(OC(F)F)ccc3[nH]2)c1OC (stereo not shown) [Form III pantoprazole free acid, 5-(difluoromethoxy)-2-[[(3,4-dimethoxy-2-pyridinyl)methyl]sulfinyl]-1H-benzimidazole]
